Reference: patent US6610681B1, “Neurotherapeutic clavulanate composition and method” (Revaax Pharmaceuticals, LLC, priority 1999, dated 2003)
“Also recorded” adds a separate entry of the source. Like-named read-outs stand apart in the source and are kept apart here.

What was measured:
male golden hamsters = assay: resident/intruder paradigm of offensive aggression; assay type: in vivo, hamster
From the text: Agonistic behavior can be classified as either offensive or defensive aggression (Blanchard and Blanchard, 1977; Adams, […]; Albert and Walsh, 1984). Offensive aggression is characterized by an aggressor initiating an attack on an opponent; while, defensive aggression lacks active approach. Both types of aggression have their own unique neurobehavioral systems. The stimuli that elicit offensive and defense attack are different, as are the sequences of behaviors that accompany each agonistic response. […] Offensive aggression is easily studied using male golden hamsters tested in a resident/intruder paradigm, an established model of offensive aggression (Ferris and Potegal 1988) in the context of defending the home burrow. Placing an unfamiliar male hamster into the home cage of another male hamster elicits a well-defined sequence of agonistic behaviors from the resident that includes offensive aggression.
Hamsters are nocturnal and as such all behavioral tests were performed during the first four hrs of the dark phase under dim red illumination. The resident was scored for offensive aggression, e.g., latency to bite the intruder, the total number of bites, total contact time with the intruder and flank marking over a 10 min test period (Ferris and Potegal, 1988). Flank marking is a form of olfactory communication in which a hamsters arches its back and rubs pheromone producing flank glands against objects in the environment (Johnston, 1986).
Five male golden hamsters (130-140 g) were given IP injections of CLAV (200 μg/kg) and saline vehicle in a volume of ca. 0.2 ml. […] Vehicle and CLAV treatments were counter balanced and randomized so all five animals received each treatment separated by at least 48 hrs. Animals were tested 90 min after treatment over a 10 min observation period. Latencies and contact time were analyzed with a two-way ANOVA. Non-parametric data, i.e., number of bites and flank marks were analyzed by Wilcoxon matched-pairs signed-ranks test.
The animals tested in this study were those used in Section IX. After the seed finding assay, beta-NAAG (n=6) and saline vehicle (n=6) treated animals remained in their home cage and were presented with a smaller, male intruder. The resident was scored for latency to bite, bites, contact time and flank marking over a 10 min observation period. Latency to bite and contact time between treatments were compared with Student t-tests. Non-parametric measures of bites and flank marks for beta-NAAG vs vehicle were compared with Mann-Whitney.

rats = assay: Morris water maze, spatial navigation; assay type: in vivo, rat
From the text: The Morris water maze was developed to test spatial memory (Morris, 1984). The pool is divided into quadrants usually designated North, South, East and West. The water in the pool is made opaque with milk powder. Hidden just beneath the surface in one of the quadrants is a platform that serves as a escape route for rodents placed into the pool. An animal is placed some where in the pool from a variety of different start points and is timed for latency to find the platform, percent time spent in each quadrant, distance traveled and swimming speed. The animals have no visual or spatial cues in the pool and must rely on extra-maze cues, i.e., objects set up outside the pool that can be seen by the swimming animal. Through a series of trials a rat develops “place learning” or knowledge about the position of the platform based upon the extra-maze cues. The platform can be moved to a different quadrant each day combining spatial memory with working memory. This paradigm involves extinction of the prior memory and resolution of a new spatial problem.
The water maze consisted of a black plastic circular pool ca. 150 cm in diameter and 54 cm in height filled to a level of 35 cm with water made opaque with powdered milk. The pool was divided into four quadrants with a platform 10 cm in diameter submerged 2 cm below the surface in the northwest quadrant. The water was maintained at a temperature of 25° C. Around the pool were several visual cues. Above the pool was a video camera for tracking the movement of the experimental animal. The data collection was completely automated using the software developed by HVS Image (Hampton, UK). Before testing, rats were familiarized with the pool and platform placed in the northwest quadrant. Each day for 4 consecutive days, animals were placed into pool at random sites and given two min to find the platform. […] Following these familiarization trials, animals were tested for spatial navigation. The first day of testing began with the platform in the expected northwest quadrant. All behavior was videotaped for a two min observation period. After testing the animal were dried off and placed back into their home cage. On each subsequent day the platform was moved to a new quadrant and the rat started at different positions. The rat was always placed into the pool facing the sidewall. The start positions relative to the platform were different for each of the four trials; however, the platform was always in the same relative position in each quadrant. It was positioned 20 cm in from the side of the pool and in the left corner from the center facing out. The latency to find the hidden platform, path length, swim rate, and quadrant times between CLAV and vehicle treated animals were compared with a two-way, repeated measures ANOVA followed by Bonferroni post hoc tests.

male Wistar rats = assay: general motor activity in an open field; assay type: in vivo, rat; details: 1.0 μg/kg IP, after the plus-maze test, vs vehicle
Procedure: Immediately after each of the plus-maze tests reported above in Section II, animals were tested for general motor activity in an “open field.” Animals were placed into a large clean Plexiglas cage (48×32×40 cm) devoid of bedding. This open field was delineated into equal quadrants by tape on the underside of the cage. Animals were scored for motor activity by counting the number of quadrants traversed in 1 min.

[1] = in vivo, cited from earlier work
[2] = approximately 7-10 mg/kg/day, intravenous with ticarcillin; cited from earlier work
[3] = system: gram negative beta-lactamase enzymes; details: cited from earlier work
[4] = system: stress-induced release of cortisol; assay: novelty test, stress-induced release of cortisol; assay type: in vivo, hamster; details: 10 μg/kg IP
Procedure: The simple procedure of placing an adult male hamster into a novel environment for 5 min causes a significant, predictable increase in blood levels of cortisol (Weinberg and Wong 1986). This novelty test was used to assess the effects of CLAV on stress-induced release of cortisol. Two groups of male hamsters were treated IP with either CLAV (10 μg/kg, n=6), or saline vehicle (n=4). A third group (n=4) received no treatment or isolation stress and served as a control for basal levels of cortisol. Sixty min after treatment animals were taken from their home cage and placed into a novel cage for 5 min. Afterwards animals were sacrificed by decapitation and trunk blood collected for radioimmunoassay of cortisol. All animals were tested under reverse light:dark conditions four hrs into the dark cycle. Data were compared with a one-way ANOVA followed by Fisher PLSD post hoc tests.

## CO[C@@]1(NC(=O)C(C(=O)O)c2ccc(O)cc2)C(=O)N2C(C(=O)O)=C(CSc3nnnn3C)CO[C@@H]21 (stereo partly drawn) [Moxalactam, 7-β-[2-carboxy-2-(4-hydroxyphenyl)acetamido]-7α-methoxy-3-[[(1-methyl-1H-tetrazol-5-yl)thio]methyl]-1-oxa-1-dethia-3-cephem-4-carboxylic acid]
Male golden hamsters; i.p. at 50 micrograms/kg, hamster
  aggression: inhibits aggression in hamster
rats; i.p. at 50 micrograms/kg, rats
  spatial learning: enhances spatial learning in rats

## O=C(O)[C@H]1/C(=C/CO)O[C@@H]2CC(=O)N21 [CLAV, clavulanic acid]
Male golden hamsters; 200 μg/kg
  antiaggressive properties (summary): modest antiaggressive or serenic-like properties
Male golden hamsters; 200 μg/kg IP, 90 min
  contact time with the intruder: no significant main effect for drug treatment
  flank marking behavior: unaffected; also recorded: no significant effect of drug treatment
Male golden hamsters; 200 μg/kg IP, 90 min, trend toward significance
  latency to bite the intruder: no significant main effect for drug treatment
Male golden hamsters; 200 μg/kg IP, 90 min, vehicle thirteen
  median number of bites: six
Male golden hamsters; IP at 1.0 μg/kg
  aggressive behavior, pilot studies: no effect on aggressive behavior
Male Wistar rats
  open field activity (quadrants traversed in 1 min): no significant differences
rats; 1.0 μg/kg, Day 1, vs vehicle
  path length to find the platform: traveled a much shorter distance
rats; 1.0 μg/kg, any quadrant on any day
  percentage of time spent in each quadrant vs vehicle: no significant difference between treatments
rats; 1.0 μg/kg, one hr before testing, 4 days
  latency to find the platform, main effect: no main effect for drug treatment
rats; 1.0 μg/kg, trend towards significance
  latency to find the platform on Days 1 and 4: shorter latencies
rats; spatial and cue navigation
  learning and memory (summary): do not show any loss in learning and memory
[1]; po
  oral activity and stability: orally active and stable
[1]
  CSF/plasma ratio: 0.25
  elimination half-life: just under two hours
  passage of the blood-brain barrier: readily passes the blood-brain barrier
[1]; listed as Clavulanic acid
  CSF/plasma ratio: around 0.25
[2]
  adverse reactions or contraindications: no reported adverse reactions or contraindications
[3]
  inhibition of gram negative beta-lactamase enzymes: 15 to 34 nM
[4]
  effect on stress release of cortisol (summary): no ostensible effect on the release of cortisol
[4]; 60 min, novel cage 5 min
  blood level of cortisol vs untreated, non-stressed control: more than twice the blood level of cortisol
